Patent US20220127297A1, “Novel Antibacterial 3"-Derivatives Of 4,6-Disubstituted 2,5-Dideoxystreptamine Aminoglycoside Antibiotics” (AGILeBiotics B.V., priority 2018, published 2022)
Converted amounts (≈) assume the structure as drawn.

What was measured:
Test in all cases: MIC determination at Fidelta, clinical isolates
Assay type in all cases: cell-based
[1] = system: clinical isolates of Vancomycin-resistant Enterococcus faecium (VRE)
Procedure, shortened: (§1)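 Clinical isolates and ATCC reference strains revived on MH agar, tested by broth microdilution in Mueller Hinton broth. Compounds from 5 mg/mL DMSO stocks, two-fold serial dilutions, final 64-0.125 μg/mL.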

[2] = system: clinical isolates of methicillin-resistant Staphylococcus aureus (MRSA)
Procedure, shortened: as §1

[3] = system: clinical isolates of multidrug-resistant Acinetobacter baumannii (and ATCC17978)
Procedure, shortened: as §1

[4] = system: clinical isolates of multidrug-resistant Pseudomonas aeruginosa (and ATCC27853)
Procedure, shortened: as §1

[5] = AB-2017, Bronchial aspirate/CRAB
[6] = AB-2019, Bronchial aspirate/CRAB

Compound | MIC90 ([1]; VRE-2005, Urine) | MIC90 ([1]; VRE-2006, Urine) | MIC90 ([1]; VRE-2007, Urine) | MIC90 ([1]; VRE-2008, Urine) | MIC90 ([1]; VRE-2009, Urine) | MIC90 ([1]; VRE-2010, Urine) | MIC90 ([1]; VRE-2011, Rectum) | MIC90 ([1]; VRE-2012, Rectum) | MIC90 ([1]; VRE-2013, Rectum) | MIC90 ([2]; MRSA-1995, Liquor) | MIC90 ([2]; MRSA-1998, Wound) | MIC90 ([2]; MRSA-1999, Skin) | MIC90 ([2]; MRSA-2003, Wound) | MIC90 ([3]; A. baumannii ATCC17978 strain) | MIC90 ([3]; AB-1931, Urine/CRAB) | MIC90 ([3]; AB-1932, Urine (catheter)/CRAB) | MIC90 [3, 5] | MIC90 ([3]; AB-2018, Skin/CRAB) | MIC90 [3, 6] | MIC90 ([4]; P. aeruginosa ATCC27853 strain) | further results
N=C(N)NC1C(O)[C@@H](CO)OC(OC2C(F)[C@H](O[C@H]3OC(CN)[C@@H](O)CC3N)C(N)C[C@H]2NC(=O)[C@@H](O)CCN)[C@@H]1O (some centres unmarked) [ABX5006, Tobra-AHB-F-Gua] | 4 mg/L (≈ 6.53 µM) | 32 mg/L (≈ 52.2 µM) | 4 mg/L (≈ 6.53 µM) | 8 mg/L (≈ 13.1 µM) | 16 mg/L (≈ 26.1 µM) | 8 mg/L (≈ 13.1 µM) | 16 mg/L (≈ 26.1 µM) | 4 mg/L (≈ 6.53 µM) | 4 mg/L (≈ 6.53 µM) | 0.5 mg/L (≈ 0.816 µM) | 0.25 mg/L (≈ 0.408 µM) | 0.5 mg/L (≈ 0.816 µM) | 0.5 mg/L (≈ 0.816 µM) | <0.125 mg/L | 0.5 mg/L (≈ 0.816 µM) | 1 mg/L (≈ 1.63 µM) | 0.5 mg/L (≈ 0.816 µM) | 1 mg/L (≈ 1.63 µM) | 1 mg/L (≈ 1.63 µM) | 0.25 mg/L (≈ 0.408 µM) | MIC90 ([3]; AB-1964, Blood): 1 mg/L (≈ 1.63 µM); MIC90 ([3]; AB-2025, Skin): 0.5 mg/L (≈ 0.816 µM); MIC90 ([3]; AB-2026, Skin): 1 mg/L (≈ 1.63 µM); MIC90 ([4]; PA-1948, Wound/OXA-2): 0.5 mg/L (≈ 0.816 µM); MIC90 ([4]; PA-1949, Urine/OXA-2): 8 mg/L (≈ 13.1 µM); MIC90 ([4]; PA-1950, Sputum/OXA-2): 1 mg/L (≈ 1.63 µM); MIC90 ([4]; PA-1952, Wound/OXA-2): 4 mg/L (≈ 6.53 µM); MIC90 ([4]; PA-1953, Urine/MDR): 8 mg/L (≈ 13.1 µM); MIC90 ([4]; PA-1954, Sputum/OXA-2): 0.5 mg/L (≈ 0.816 µM); MIC90 ([4]; PA-1967, Blood/VIM): 4 mg/L (≈ 6.53 µM)
N=C(NC[C@@H]1CCCN1)NC1[C@@H](O)C(OC2[C@@H](F)[C@H](O[C@H]3OC(CN)[C@@H](O)CC3N)C(N)C[C@H]2NC(=O)[C@@H](O)CCN)O[C@H](CO)[C@H]1O (stereo partly drawn) [ABX5026, Tobra-AHB-F-Gua (S) pyrrolidine-2-yl-methyl] | 4 mg/L (≈ 5.75 µM) | 8 mg/L (≈ 11.5 µM) | 4 mg/L (≈ 5.75 µM) | 4 mg/L (≈ 5.75 µM) | 8 mg/L (≈ 11.5 µM) | 8 mg/L (≈ 11.5 µM) | 8 mg/L (≈ 11.5 µM) | 4 mg/L (≈ 5.75 µM) | 4 mg/L (≈ 5.75 µM) | 0.5 mg/L (≈ 0.719 µM) | 0.25 mg/L (≈ 0.359 µM) | 0.5 mg/L (≈ 0.719 µM) | 0.5 mg/L (≈ 0.719 µM) | 0.5 mg/L (≈ 0.719 µM) | 1 mg/L (≈ 1.44 µM) | 1 mg/L (≈ 1.44 µM) | 1 mg/L (≈ 1.44 µM) | 1 mg/L (≈ 1.44 µM) | 1 mg/L (≈ 1.44 µM) | 1 mg/L (≈ 1.44 µM) | MIC90 ([3]; AB-1964, Blood): 2 mg/L (≈ 2.87 µM); MIC90 ([3]; AB-2025, Skin): 1 mg/L (≈ 1.44 µM); MIC90 ([3]; AB-2026, Skin): 2 mg/L (≈ 2.87 µM); MIC90 ([4]; PA-1948, Wound/OXA-2): 1 mg/L (≈ 1.44 µM); MIC90 ([4]; PA-1949, Urine/OXA-2): 16 mg/L (≈ 23 µM); MIC90 ([4]; PA-1950, Sputum/OXA-2): 1 mg/L (≈ 1.44 µM); MIC90 ([4]; PA-1952, Wound/OXA-2): 8 mg/L (≈ 11.5 µM); MIC90 ([4]; PA-1953, Urine/MDR): 32 mg/L (≈ 46 µM); MIC90 ([4]; PA-1954, Sputum/OXA-2): 1 mg/L (≈ 1.44 µM); MIC90 ([4]; PA-1967, Blood/VIM): 8 mg/L (≈ 11.5 µM)
N=C(NC[C@@H]1CCNC1)NC1[C@@H](O)C(OC2[C@@H](F)[C@H](O[C@H]3OC(CN)[C@@H](O)CC3N)C(N)C[C@H]2NC(=O)[C@@H](O)CCN)O[C@H](CO)[C@H]1O (stereo partly drawn) [ABX5039, Tobra-AHB-F-Gua (R) pyrrolidine-3-ylmethyl] | 4 mg/L (≈ 5.75 µM) | 16 mg/L (≈ 23 µM) | 4 mg/L (≈ 5.75 µM) | 4 mg/L (≈ 5.75 µM) | 4 mg/L (≈ 5.75 µM) | 8 mg/L (≈ 11.5 µM) | 8 mg/L (≈ 11.5 µM) | 4 mg/L (≈ 5.75 µM) | 4 mg/L (≈ 5.75 µM) | 0.5 mg/L (≈ 0.719 µM) | 0.25 mg/L (≈ 0.359 µM) | 0.25 mg/L (≈ 0.359 µM) | 0.5 mg/L (≈ 0.719 µM) | 0.5 mg/L (≈ 0.719 µM) | 1 mg/L (≈ 1.44 µM) | 1 mg/L (≈ 1.44 µM) | 1 mg/L (≈ 1.44 µM) | 1 mg/L (≈ 1.44 µM) | 1 mg/L (≈ 1.44 µM) | 0.5 mg/L (≈ 0.719 µM) | MIC90 ([3]; AB-1964, Blood): 1 mg/L (≈ 1.44 µM); MIC90 ([3]; AB-2025, Skin): 1 mg/L (≈ 1.44 µM); MIC90 ([3]; AB-2026, Skin): 2 mg/L (≈ 2.87 µM); MIC90 ([4]; PA-1948, Wound/OXA-2): 1 mg/L (≈ 1.44 µM); MIC90 ([4]; PA-1949, Urine/OXA-2): 8 mg/L (≈ 11.5 µM); MIC90 ([4]; PA-1950, Sputum/OXA-2): 1 mg/L (≈ 1.44 µM); MIC90 ([4]; PA-1952, Wound/OXA-2): 4 mg/L (≈ 5.75 µM); MIC90 ([4]; PA-1953, Urine/MDR): 32 mg/L (≈ 46 µM); MIC90 ([4]; PA-1954, Sputum/OXA-2): 1 mg/L (≈ 1.44 µM); MIC90 ([4]; PA-1967, Blood/VIM): 4 mg/L (≈ 5.75 µM)
NCC[C@H](O)C(=O)N[C@@H]1C[C@H](N)[C@@H](O[C@H]2O[C@H](CN)[C@@H](O)[C@H](O)[C@H]2O)[C@H](O)[C@H]1O[C@H]1O[C@H](CO)[C@@H](O)[C@H](N)[C@H]1O [Amikacin, amikacin, reference compound] | > 64 mg/L | > 64 mg/L | > 64 mg/L | > 54 mg/L | > 64 mg/L | > 64 mg/L | > 64 mg/L | > 64 mg/L | > 64 mg/L | 4 mg/L (≈ 6.83 µM) | 4 mg/L (≈ 6.83 µM) | 8 mg/L (≈ 13.7 µM) | 4 mg/L (≈ 6.83 µM) |  |  |  |  |  |  |  | 
N=C(NCCN)NC1C(O)[C@@H](CO)OC(OC2C(F)[C@H](O[C@H]3OC(CN)[C@@H](O)CC3N)C(N)C[C@H]2NC(=O)[C@@H](O)CCN)[C@@H]1O (some centres unmarked) [ABX5020, Tobra-AHB-F-Gua-2-amino-ethyl] |  |  |  |  |  |  |  |  |  |  |  |  |  | 0.5 mg/L (≈ 0.763 µM) | 1 mg/L (≈ 1.53 µM) | 1 mg/L (≈ 1.53 µM) | 1 mg/L (≈ 1.53 µM) | 2 mg/L (≈ 3.05 µM) | 2 mg/L (≈ 3.05 µM) | 0.25 mg/L (≈ 0.381 µM) | MIC90 ([4]; PA-1948, Wound/OXA-2): 1 mg/L (≈ 1.53 µM); MIC90 ([4]; PA-1949, Urine/OXA-2): 8 mg/L (≈ 12.2 µM); MIC90 ([4]; PA-1950, Sputum/OXA-2): 1 mg/L (≈ 1.53 µM); MIC90 ([4]; PA-1952, Wound/OXA-2): 8 mg/L (≈ 12.2 µM); MIC90 ([4]; PA-1953, Urine/MDR): 16 mg/L (≈ 24.4 µM); MIC90 ([4]; PA-1954, Sputum/OXA-2): 0.5 mg/L (≈ 0.763 µM)
